From US12612465B2, “Formulations comprising PCSK9 specific monoclonal antibodies” (Amgen Inc., priority 2012, dated 2026)

Tested on: PCSK9
Test: Serum lipids after a single subcutaneous dose in cynomolgus monkeys
Format: in vivo, cynomolgus monkey
Conditions: 0.5 mg/kg single SC
Description: Briefly, naive male cynomolgus monkeys were acclimated to their environment for at least 2 weeks prior to experimentation. Animals were randomized into treatment groups based on a pre-screen of their serum TC, HDL-C, LDL-C, and triglyceride levels, and their body weight. After 1 week, animals were fasted overnight, and bled from the peripheral vasculature (cephalic or saphenous vein), for measurement of baseline serum lipid levels at a time point designated T=0. […] Fasting blood samples were then collected from animals at designated time points over a 45 day period.
At specified time points, blood was collected from animals under overnight fasting conditions from the peripheral vasculature (cephalic or saphenous vein). Whole blood was allowed to coagulate for 30 minutes at room temperature. Following centrifugation at 3,000 rpm for 20 minutes, serum was collected. Direct serum cholesterol analysis was performed using the Cobas Integra 400 analyzer (Roche Diagnostics Inc, Indianapolis, Ind.). Apolipoprotein B serum levels were determined at specified time points (day 0, 3, 6, 15, 24 and 33) by Anilytics, Md., with the following methodology. A 17 μL aliquot of the sample (no preparation) was used for analysis with a Hitachi 717 Analyzer using a 6 points standard curve. If the initial value of the sample was higher than the standard curve linearity, then the sample was diluted and repeated with the result multiplied by the appropriate dilution factor. The reagents for the assay (APO-B Reagent Kit #86071, Antibody Set #86060, Control Set #86103) were obtained from DiaSorin (Stillwater, Minn.).
A statistical model that considers baseline as a covariate and treatment group as a fixed effect was fit to the log transformed response at each time point for LDL-C, HDL-C, TC, and triglycerides. Tukey's multiple comparison correction was applied to adjust the pair wise comparisons at each time point. The statistical significance was evaluated at alpha=0.05 using adjusted p-values.

Substance: 11F1: anti-PCSK9 ABP, light/heavy variable region SEQ ID NO 465/463 [Antibody 11F1]
- TC returned to levels similar to control animals: ≤ 27 days
- maximal LDL-C lowering as compared to control animals: 57%
- maximal TC lowering as compared to control animals: 27%
- maximal lowering of LDL-C vs anti-KLH IgG2 control at the same time point (change): −57%
- serum HDL-C vs anti-KLH IgG2 control: No statistically significant changes
- time of maximal LDL-C lowering after injection: 9 days
- time of maximal TC lowering after injection: 9 days
- triglycerides levels vs anti-KLH IgG2 control: No statistically significant changes
- serum ApoB vs anti-KLH IgG2 control (days 3, 6, 15, 24 and 33): ApoB lowering at days 3 to 24
- HDL-C or triglyceride levels vs anti-KLH IgG2 control (each time point, alpha=0.05): not significantly different
